{"source": "patent US4973675A", "about": "“Hybrid nitrosoureidoanthracyclines having antitumor activity” (University of Tennessee Research Center, priority 1989, dated 1990)", "key": {"[1]": {"system": "human CEM leukemic lymphocytes", "assay": "Growth inhibition of human CEM leukemic lymphocyte suspension cultures, 48 h continuous drug exposure (ID50)", "assay_type": "cell-based", "settings": "Homo sapiens, Lymphocyte; suspension culture, 48 hr continuous drug exposure (Table 3); read-out: CEM, ID50 (50% growth-inhibitory concentration)", "experimental": "(§1) Culture and bioassay conditions were as described in Cancer Chemotherapy Pharmacology 20:277 (1987) \"Comparative Effects of Adriamycin and DNA-nonbinding Analogues on DNA, RNA, and Protein Synthesis in Vitro\", Israel et al., except that cell counts were determined by hemocytometer rather than by automated cell counting."}, "DNA topoisomerase II": {"system": "DNA topoisomerase II", "assay": "Drug-stimulated topoisomerase II-mediated DNA cleavage assay (end-labeled PMC41 DNA)", "assay_type": "biochemical", "from_the_text": "FIGS. 5A and 5B are a photographic reproduction of the results of drug-stimulated topoisomerase II-mediated DNA cleavage assays performed on various compounds, including compounds of the present invention.\nDNA intercalation is a necessary but not a sufficient requirement for DNA topoisomerase II-mediated DNA cleavage. Accordingly, determination of drug-induced enzyme inhibition requires direct assay with isolated topoisomerase II. These assays involve determination of drug-enhanced topoisomerase II-mediated cleavage of PMC41 DNA appropriately end-labeled with [α-^32 P]dATP. As better seen in FIG. 5B, lane B, purified topoisomerase II, under the assay conditions, causes fragmentation of the DNA (background cleavage), as indicated by the radioautographic appearance of bands of cleaved DNA having differing mass values."}, "murine P388 leukemia": {"system": "murine P388 leukemia", "settings": "this protocol, cited from earlier work"}, "[2]": {"system": "murine P388/adriamycin-resistant leukemia", "settings": "Johnson et al. (1976); cited from earlier work"}, "human CLL lymphocytes": {"system": "human CLL lymphocytes", "assay": "DNA alkaline elution filter assay, DNA damage in human CLL lymphocytes", "assay_type": "cell-based", "from_the_text": "(§2) By means of the DNA alkaline elution filter assay technique, it is possible to assess the nature of damage induced in DNA by exposure to drugs and other agents. Depending on the assay conditions, DNA lesions can be quantified as direct strand breaks, DNA-DNA interstrand crosslinks, and protein-associated strand breaks and crosslinks. The action of akylating-type drugs on DNA typically results in a predominant formation of direct DNA single-strand breaks and DNA-DNA crosslinks. DNA intercalating agents show a preponderance of protein-associated DNA damage, detectable as protein-associated single-strand breaks and DNA-protein crosslinks.\n(§3) The nature of nitrosoureidoanthracycline-induced DNA damage in murine L1210 and human CLL lymphocytes was assessed by means of the alkaline elution filter technique. Murine L1210 leukemic lymphocytes, like P388/S lymphocytes, are known to contain high levels of topoisomerase II.\n(§4) *All concentrations 1 μM, 1hr incubation. Each entry represents the\n(§5) mean of at least two experiments, frequency per 10^6 nucleotides;\n(§6) statistically significant increase above background underlined. DB, direc\n(§7) (nonenzymatic) DNA breaks; PAB, proteinassociated DNA cleavage; DDCL,\n(§8) interstrand DNA crosslinks; DPCL, DNAprotein crosslinks.\nB-cell type lymphocytes freshly obtained from patients with chronic lymphocytic leukemia (CLL) show undetectable levels of topoisomerase II."}, "murine L1210 lymphocytes": {"system": "murine L1210 lymphocytes", "assay": "DNA alkaline elution filter assay, DNA damage in murine L1210 lymphocytes", "assay_type": "cell-based", "from_the_text": "as §2, §3, §4, §5, §6, §7, §8"}, "[3]": {"system": "murine P388/adriamycin-resistant leukemia", "assay": "In vivo antitumor activity vs. murine P388/adriamycin-resistant leukemia (P388/ADR)", "settings": "for increase in life span: P388/ADR in vivo, lack of response confirmed", "text": "(§9) Assays were run essentially according to the established protocols of the U.S. National Cancer Institute (Geran et al., 1972 \"Protocols for Screening Chemical Agents and Natural Products Against Animal Tumors and Other Biological Systems\" (3rd Ed.), Cancer Chemotherapy Rep. [3]33, 1-103.), with the test agent given at 3-5 incremental dose levels in each screening experiment and with median survival of treated groups referenced against data for untreated controls.\n(§10) *B6D2F1 males; 1 × 10^6 tumor cell inoculum ip day 0; treatment"}, "[4]": {"system": "murine L1210 leukemia cells", "assay": "Clonogenic assay with cultured murine L1210 leukemia cells, 1 h drug exposure (LD90)", "assay_type": "cell-based", "settings": "Mus musculus, L1210; 1 hr drug exposure; read-out: L1210 LD90 (dose killing 90% of clonogens)", "experimental": "as §1\n+Dose killing 90% of clonogens, 1hr. drug exposure."}, "[5]": {"system": "plasmid PC15 supercoiled DNA", "assay": "DNA unwinding assay (interference with DNA topoisomerase I-mediated unwinding; drug-DNA intercalation)", "assay_type": "biochemical", "settings": "for relative strength of drug-DNA intercalation (arbitrary scale): 0 = no intercalation, 9 = very strong intercalation", "from_the_text": "DNA unwinding assays were used to measure the ability of a test drug to interfere with DNA topoisomerase I-mediated unwinding of plasmid PC15 supercoiled DNA. DNA topoisomerase I controls the topology of double-stranded DNA and is itself not inhibited by DNA intercalating agents. Rather, intercalating agents cause distortion of the torsional angle between adjacent DNA strand components and thereby interfere with the ability of topoisomerase I to convert supercoiled DNA into relaxed forms. Accordingly, this assay is taken as the definitive test of drug-DNA intercalation.\nDrugs were tested at 4 concentrations over a 125-fold concentration range. […] These compounds are 2-chloroethylurea derivatives of daunorubicin and adriamycin, respectively (i.e. not nitrosoureas, but chemical intermediates from which the nitrosoureas were derived)."}, "[6]": {"system": "murine P388/adriamycin-resistant leukemia", "settings": "mouse, in vivo, ip", "text": "as §9, §10"}, "[7]": {"settings": "CLL, 1 μM, 1 hr incubation, 0 hr after treatment"}, "[8]": {"settings": "L1210, 1 μM, 1 hr incubation, 0 hr after treatment"}}, "note": "pIC50: −log10 of the molar value. Several values for one entry are separate records, joined by “and”; a condition that tells them apart may be missing. Equal values may be shown once. Entries after “also recorded” stand apart in the source; their conditions may differ. Read-outs that look alike come from different tables or passages of the source."}
{"compound": "COc1cccc2c1C(=O)c1c(O)c3c(c(O)c1C2=O)C[C@@](O)(C(=O)CO)C[C@@H]3O[C@H]1C[C@H](N)[C@H](O)[C@H](C)O1", "note": "[Adriamycin, adriamycin, reference compound]", "values": [{"measurement": "pIC50", "setting": "[1]", "result": 7.26}, {"measurement": "enhancement of topoisomerase II-mediated DNA cleavage", "setting": "DNA topoisomerase II; 625-fold concentration range", "result": "at low concentrations adriamycin enhances DNA fragmentation"}, {"measurement": "concentration at which background cleavage is eliminated", "setting": "DNA topoisomerase II; and higher", "result": "≥ 4.6 μM and ≥ 2.5 μg/ml"}, {"measurement": "longterm survivors, historical results", "setting": "murine P388 leukemia; optimal dose 3.0 mg/kg", "result": "infrequent longterm survivors"}, {"measurement": "in vivo sensitivity of P388/ADR", "setting": "[2]", "result": "insensitive to adriamycin in vivo"}, {"measurement": "pattern of DNA damage", "setting": "human CLL lymphocytes; CLL B-cell lymphocytes", "result": "cannot be detected in these cells to any significant level"}, {"measurement": "DB, direct (nonenzymatic) DNA breaks", "setting": "human CLL lymphocytes; [7]", "result": "0.1 frequency per 10^6 nucleotides"}, {"measurement": "DD-CL, interstrand DNA crosslinks", "setting": "human CLL lymphocytes; [7]", "result": "0.0 frequency per 10^6 nucleotides"}, {"measurement": "DP-CL, DNA-protein crosslinks", "setting": "human CLL lymphocytes; [7]", "result": "0.1 frequency per 10^6 nucleotides"}, {"measurement": "PAB, protein-associated DNA cleavage", "setting": "human CLL lymphocytes; [7]", "result": "0.1 frequency per 10^6 nucleotides"}, {"measurement": "pattern of DNA damage", "setting": "murine L1210 lymphocytes; L1210", "result": "significant amounts of protein-associated single-strand breaks, without producing much in the way of direct strand breaks and DNA-DNA interstrand cross-links"}, {"measurement": "DB, direct (nonenzymatic) DNA breaks", "setting": "murine L1210 lymphocytes; [8]", "result": "-0.1 frequency per 10^6 nucleotides"}, {"measurement": "DD-CL, interstrand DNA crosslinks", "setting": "murine L1210 lymphocytes; [8]", "result": "0.1 frequency per 10^6 nucleotides"}, {"measurement": "increase in life span", "setting": "[3]", "result": 0, "unit": "%"}, {"measurement": "IC90", "setting": "[4]", "result": 310, "unit": "nM"}, {"measurement": "relative strength of drug-DNA intercalation (arbitrary scale)", "setting": "[5]", "result": 7}, {"measurement": "interference with topoisomerase I-mediated conversion of supercoiled DNA / intercalation", "setting": "[5]; 4 concentrations, 125-fold range", "result": "concentration-dependent ability to interfere with the conversion of supercoiled DNA to relaxed forms; also recorded: ability of increasing concentrations of adriamycin (positive control) to interfere with the conversion of supercoiled DNA to relaxed forms"}]}
{"compound": "COc1cccc2c1C(=O)c1c(O)c3c(c(O)c1C2=O)C[C@@](O)(C(C)=O)C[C@@H]3O[C@H]1C[C@H](N)[C@H](O)[C@H](C)O1", "note": "[Daunorubicin, daunorubicin]", "values": [{"measurement": "pIC50", "setting": "[1]", "result": 7.52}, {"measurement": "ILS, historical results", "setting": "murine P388 leukemia; optimal dose 2.0 mg/kg", "result": "+75 - +100%"}, {"measurement": "longterm survivors, historical results", "setting": "murine P388 leukemia; optimal dose 2.0 mg/kg", "result": "no longterm survivors"}, {"measurement": "in vivo sensitivity of P388/ADR", "setting": "[2]", "result": "cross-resistant to daunorubicin"}, {"measurement": "toxicity flag", "setting": "[3]; 18.0 mg/kg, d1 only", "result": "Toxic"}, {"measurement": "increase in life span", "setting": "[3]", "result": 0, "unit": "%"}, {"measurement": "Long-term survivors", "setting": "[3]; ip, 1.0 mg/kg qd 1-4", "result": "0/6"}, {"measurement": "Median increase in lifespan", "setting": "[3]; ip, 1.0 mg/kg qd 1-4", "result": "+9%"}, {"measurement": "Median survival", "setting": "[3]; ip, 1.0 mg/kg qd 1-4", "result": 12, "unit": "days"}, {"measurement": "Net mean percent weight change, day 7", "setting": "[3]; ip, 1.0 mg/kg qd 1-4", "result": "+20%"}, {"measurement": "Range of death (dying animals)", "setting": "[3]; ip, 1.0 mg/kg qd 1-4", "result": "11 to 12", "unit": "days"}, {"measurement": "Long-term survivors", "setting": "[3]; ip, 2.0 mg/kg qd 1-4", "result": "0/7"}, {"measurement": "Median increase in lifespan", "setting": "[3]; ip, 2.0 mg/kg qd 1-4", "result": 0, "unit": "%"}, {"measurement": "Median survival", "setting": "[3]; ip, 2.0 mg/kg qd 1-4", "result": 11, "unit": "days"}, {"measurement": "Range of death (dying animals)", "setting": "[3]; ip, 2.0 mg/kg qd 1-4", "result": "11 to 12", "unit": "days"}, {"measurement": "Long-term survivors", "setting": "[3]; ip, 3.0 mg/kg qd 1-4", "result": "0/7"}, {"measurement": "Median increase in lifespan", "setting": "[3]; ip, 3.0 mg/kg qd 1-4", "result": 0, "unit": "%"}, {"measurement": "Median survival", "setting": "[3]; ip, 3.0 mg/kg qd 1-4", "result": 11, "unit": "days"}, {"measurement": "Range of death (dying animals)", "setting": "[3]; ip, 3.0 mg/kg qd 1-4", "result": "10 to 12", "unit": "days"}, {"measurement": "Long-term survivors", "setting": "[3]; ip, 4.0 mg/kg qd 1-4", "result": "0/7"}, {"measurement": "Median increase in lifespan", "setting": "[3]; ip, 4.0 mg/kg qd 1-4", "result": -9, "unit": "%"}, {"measurement": "Median survival", "setting": "[3]; ip, 4.0 mg/kg qd 1-4", "result": 10, "unit": "days"}, {"measurement": "Range of death (dying animals)", "setting": "[3]; ip, 4.0 mg/kg qd 1-4", "result": "9 to 12", "unit": "days"}, {"measurement": "Long-term survivors", "setting": "[3]; ip, 12.0 mg/kg d1 only", "result": "0/7"}, {"measurement": "Median increase in lifespan", "setting": "[3]; ip, 12.0 mg/kg d1 only", "result": 0, "unit": "%"}, {"measurement": "Median survival", "setting": "[3]; ip, 12.0 mg/kg d1 only", "result": 10, "unit": "days"}, {"measurement": "Range of death (dying animals)", "setting": "[3]; ip, 12.0 mg/kg d1 only", "result": "9 to 11", "unit": "days"}, {"measurement": "Long-term survivors", "setting": "[3]; ip, 15.0 mg/kg d1 only", "result": "0/7"}, {"measurement": "Median increase in lifespan", "setting": "[3]; ip, 15.0 mg/kg d1 only", "result": 0, "unit": "%"}, {"measurement": "Median survival", "setting": "[3]; ip, 15.0 mg/kg d1 only", "result": 10, "unit": "days"}, {"measurement": "Range of death (dying animals)", "setting": "[3]; ip, 15.0 mg/kg d1 only", "result": "8 to 11", "unit": "days"}, {"measurement": "Long-term survivors", "setting": "[3]; ip, 18.0 mg/kg d1 only", "result": "0/7"}, {"measurement": "Median survival", "setting": "[3]; ip, 18.0 mg/kg d1 only", "result": 8, "unit": "days"}, {"measurement": "Range of death (dying animals)", "setting": "[3]; ip, 18.0 mg/kg d1 only", "result": "6 to 9", "unit": "days"}, {"measurement": "Median increase in lifespan", "setting": "[3]; ip, 18.0 mg/kg d1 only, ** Toxic", "result": -20, "unit": "%"}, {"measurement": "IC90", "setting": "[4]", "result": 900, "unit": "nM"}, {"measurement": "relative strength of drug-DNA intercalation (arbitrary scale)", "setting": "[5]", "result": 7}, {"measurement": "Net mean percent weight change, day 7", "setting": "[6]; 2 mg/kg", "result": -0.5, "unit": "%"}, {"measurement": "Net mean percent weight change, day 7", "setting": "[6]; 3 mg/kg", "result": -7, "unit": "%"}, {"measurement": "Net mean percent weight change, day 7", "setting": "[6]; 4 mg/kg", "result": -7, "unit": "%"}, {"measurement": "Net mean percent weight change, day 7", "setting": "[6]; 12 mg/kg", "result": -13, "unit": "%"}, {"measurement": "Net mean percent weight change, day 7", "setting": "[6]; 15 mg/kg", "result": -13, "unit": "%"}, {"measurement": "Net mean percent weight change, day 7", "setting": "[6]; 18 mg/kg", "result": -28, "unit": "%"}]}
